Source: publication PMC3925085, “Subditine, a New Monoterpenoid Indole Alkaloid from Bark of Nauclea subdita (Korth.) Steud. Induces Apoptosis in Human Prostate Cancer Cells” (PLoS ONE, 2014)

Key:
[1] = test system: LNCaP cells; test: Hoechst 33342 / phalloidin staining, LNCaP; assay type: cell-based, human; settings: 24 hours
Protocol: (§1) Cytoskeletal and nuclear morphological changes of LNCaP and PC-3 cells were examined by phalloidin (detects F-actin) and Hoechst 33342 staining. […] At concentration 12.5 µM and 25 µM, nuclear condensation and fragmentation were detected at 24 hours after subditine (1) treatment (Figure 4).
(§2) Figure 3 Subditine (1) induced cytoskeletal rearrangement at the peripheral. LNCaP and PC-3 cells were treated with subditine (1) at various concentrations for 24 hours. Cells were fixed and stained with Hoechst (blue) and phalloidin (red) dye which stained nucleus and polymerized actin (F-actin), respectively. Bar chart showing average fluorescent intensity of phalloidin (mean ± S.D.; *p<0.05).
(§3) Figure 4 Subditine (1) treatment leads to nuclear DNA fragmentation. LNCaP and PC-3 cells were treated with subditine (1) (12.5 µM and 25 µM) for 24 h. Cells were then fixed and stained with Hoescht 33342 (blue). Red circles indicate DNA shrinkage or fragmentation. Images were captured using Cellomic arrayscan system.

[2] = test system: PC-3 human prostate cancer cells; test: MTT cell proliferation assay, PC-3; assay type: cell-based
Protocol: Human prostate normal cell line (RWPE-1) and human prostate cancer cell lines; LNCaP and PC-3, were purchased from the American Type Culture Collection (ATCC, Manassas, Virginia, USA). LNCaP and PC-3 cells were grown in Roswell Park Memorial Institute medium (RPMI) supplemented with 10% heat-inactivated fetal bovine serum (FBS, Sigma-Aldrich, St. Louis, MO), 1% penicillin and streptomycin. RWPE-1 cells were maintained in Keratinocyte Serum Free Medium (K-SFM, ATCC) supplemented with bovine pituitary extract (BPE) and human recombinant epidermal growth factor (EGF). Mediums were supplemented with 10% heat-inactivated fetal calf serum (Sigma.), 100 U/ml penicillin and […] streptomycin (Flowlab, Sydney, Australia). All cells were maintained in a humidified atmosphere of 5% CO2 in air at 37°C incubator.
The anti-proliferative activity was evaluated by performing MTT assays as previously described with minor modifications. Briefly, cells were seeded 24 hours prior to treatment in a 96-well plate at 5×10^4 cells/well in order to obtain 70% to 80% confluent cultures. The compounds were dissolved in DMSO (Sigma Chemical Co., St. Louis, Missouri, USA) followed by a 2×serial dilution for 10 points ranged from 0.825 µM to 100 µM. The 96-well plate was incubated for 24 hours at 37°C in a humidified atmosphere with 5% CO2. At the end of incubation, 50 µl of MTT solution (2 mg/ml; Sigma) was added to each well. The plate was then incubated for 4 hours. All medium was removed and the purple formazan crystal formed at the bottom of the wells was dissolved with 200 µl DMSO for 20 minutes. The absorbance at 570 nm was read on a spectrophotometric plate reader (Hidex). The proportion of surviving cells was calculated as: […]
Dose-response curves were constructed to obtain the IC50 values. Experimental data were derived from 3 independent experiments. The selectivity index was obtained by mean IC50 RWPE-1/mean IC50 of LNCaP or PC-3.

[3] = test system: glutathione reductase (GR) gene expression in LNCaP cells; test: Oxidative stress and antioxidant defense qPCR-array, LNCaP; assay type: cell-based, human; settings: 12.5 µM, 18 h, relative to control cells
Protocol: LNCaP and PC-3 cells were treated with subditine (1) (12.5 µM) for 18 h. RNA was extracted from PC-3 or LNCaP cells using RNeasy plus mini kit (Qiagen). 1 µg of RNA was reverse transcribed into cDNA using the RT2 first strand kit (SA Biosciences, Qiagen).cDNA was mixed with RT2 Real Time™ SYBR Green/fluorescein PCR master-mix and loaded into each 96 wells of the Human Oxidative Stress and Antioxidant Defense qPCR array according to the manufacturer’s protocol (SA Biosciences, Qiagen). Briefly, a total volume of 25 µl of PCR mixture, which included 12.5 µl of mastermix, 11.5 µl of double distilled water, and 1 µl of cDNA was loaded into each of the 96wells. qPCR were done using StepOne PLUS real-time PCR machine (Applied Biosystems). PCR amplification was conducted at 95°C for 10 min, followed by 40 cycles of 95°C for 15 sec and 60°C for 1 min. The mRNA expression for each gene was normalized using the average expression of five housekeeping genes:
β-actin (ACTB), β-2-microglobulin (β2M), hypoxanthine phosphoribosyltransferase 1 (HPRT1), ribosomal protein L13a (RPL13A) and glyceraldehyde-3-phosphate dehydrogenase (GAPDH). The ΔΔCt method was used for data analysis. Fold changes were calculated for each gene as the difference in gene expression between subditine (1) or non-treated control using the RT Profiler qPCR-array data analysis software.

[4] = test system: LNCaP cells; test: Cellomics multiparameter cytotoxicity assay, LNCaP; assay type: cell-based, human
Protocol: Cytotoxicity 3 kit (Thermo Scientific) was used as described previously. Briefly, 24 hours after subditine (1) treatment, MMP dye and the cell permeability dye were added to live cells and incubated for 30 minutes at 37°C. Cells were fixed, permeabilized, blocked with 1x blocking buffer before probing with primary cytochrome c and secondary DyLight 649 conjugated goat anti-mouse IgG antibodies for 1 hour each. Hoechst 33342 was added into the staining solution. Plates were then analyzed using the ArrayScan high content screening (HCS) system (Cellomics, PA, USA). Data were captured, extracted and analyzed with ArrayScan II Data Acquisition and Data Viewer version 3.0.

[5] = test system: PC-3 cells; test: Hoechst 33342 / phalloidin staining, PC-3; assay type: cell-based, human; settings: PC-3, 12.5 µM and 25 µM, 24 hours, P<0.05
Protocol: as §1, §2, §3

[6] = test system: Bcl-xL expression in LNCaP cells; test: Western blotting, Bcl-xL in LNCaP; assay type: cell-based, human; settings: 24 h
Protocol: (§4) To determine protein expression, 1×10^6 cells/mL were seeded and treated with subditine (1) or paclitaxel for 24 h. Whole cell extracts were prepared as previously described. Briefly, cells were collected, lysed and resolved on 10% SDS-polyacrylamide gels. After electrophoresis, the proteins were transferred to PVDF membranes (Millipore), blocked with 5% nonfat dry milk in PBS-T (0.05% Tween 20) for 1 hour at room temperature. Membranes were probed with primary rabbit anti-Bcl-2, Bcl-xL or p53 antibodies followed by horseradish peroxidase (HRP)-conjugated secondary anti-rabbit antibody (Cell Signaling Technology Inc., CA, USA). Membranes were stripped and reprobed with mouse anti-β-actin antibody as loading control (Santa Cruz Biotechnology Inc.). Protein-antibody complexes were detected with Amersham ECL prime Western blotting detection reagent (GE Healthcare, USA).

[7] = test system: Bcl-2 expression in LNCaP cells; test: Western blotting, Bcl-2 in LNCaP; assay type: cell-based, human; settings: 24 h
Protocol: as §4

[8] = test system: p53 expression in PC-3 cells; test: Western blotting, p53 in PC-3; assay type: cell-based, human; settings: PC-3 (p53-null), 24 h
Protocol: as §4

IC50 ([2]; Homo sapiens, MTT, 24 hours, PC-3, mean ± S.D.): 14 ± 0.32 µM
Structure (SMILES): Cc1ncc2c(=O)n3c(cc2c1C=O)-c1[nH]c2ccccc2c1CC3 [Subditine, subditine]
nuclear intensity (apoptotic chromatin changes) ([1]; 12.5 µM and 25 µM, P<0.05): significantly increased
phalloidin (F-actin) intensity ([1]; various concentrations): Dose-dependent increased
folds more potent against PC-3 than normal prostate cells RWPE-1 ([2]; PC-3 vs RWPE-1): 2.2 folds
selectivity index (SI) PC-3 ([2]; mean IC50 RWPE-1/mean IC50 of PC-3): 2.18
glutathione reductase (GR) gene expression fold change [3]: > 100 fold
cytochrome c release (cytosolic staining) ([4]; 24 h, compared to control): increased fluorescent-staining in the cytosol
membrane permeability ([4]; 24 h, compared to control): higher membrane permeability
mitochondrial membrane potential (MMP) fluorescence intensity ([4]; 24 hours): dose-dependent reduction
nuclear intensity (apoptotic chromatin changes) [5]: significantly increased
Bcl-xL expression [6]: down-regulation
Bcl-2 expression [7]: down-regulation
p53 expression [8]: did not restore or enhance
